Measured values reported in patent US11319452B2, “Vapor source using solutions of precursors in tertiary amines” (President and Fellows of Harvard College, priority 2013, dated 2022).

Assays:
[1] = room temperature; cited from earlier work
[2] = tested on: marine organisms; settings: cited from earlier work
[3] = tested on: chromosomes; settings: reported in vitro; cited from earlier work
[4] = tested on: human; settings: cited from earlier work
[5] = Evaporation rate by isothermal thermogravimetric analysis (TGA); format: physicochemical
Description: DLE is a non-equilibrium evaporation process, because the vapor is swept away from the surface of the liquid before it can reach the equilibrium vapor pressure. The amount of liquid vaporized is thus determined by the evaporation rate. The rate of evaporation of a material can be measured using isothermal thermogravimetric analysis (TGA). In this method, a small sample (typically about 50 milligrams) of a material is held in the pan of a microbalance while a flow of a gas, such as nitrogen, passes over the surface of the material. As vapor leaves the surface of the material, its mass decreases and the microbalance measures the mass of the remaining un-evaporated material. […] The furnace temperature was increased from 110° C. to 115° C. during the time from 160 minutes to 162 minutes, at which time the temperature had stabilized at 115° C. The many mass values measured from 162 minutes until 175 minutes form a nearly continuous thick line in FIG. 1. […]
One class of precursors widely used for ALD and CVD are metal amidinates. One example is (N,N′-di-sec-butylacetamidinato)copper(I) dimer, whose evaporation rate was also measured by the same isothermal TGA method. […]

[6] = Solubility of amidinate precursors in dry, oxygen-free trialkylamine solvent; format: physicochemical; settings: for solubility: in dry
Procedure: Another important criterion for solvents is that they dissolve a sufficient amount of precursor. Useful concentrations of the solutions are typically larger than 10 weight per cent, larger than 20 weight percent in more preferred embodiments, and larger than 40 weight percent in the most preferred embodiments.
Purification to remove oxygen, moisture and di-n-hexylamine was carried out as follows: 95 g of tri-n-hexylamine was mixed with 1 g of Na and heated to 100° C. under a N2 atmosphere for 3 hours. Then the purified tri-n-hexylamine was distilled out and stored in a glove box under a purified N2 atmosphere. A nickel precursor, bis(N,N′-di-tert-butylacetamidinato)nickel(II),
[drawing 6] was dissolved in the purified dry, oxygen-free tri-n-hexylamine.

[7] = in tri-n-hexylamine and in tri-n-heptylamine

CCCCCCCCCCCC [Dodecane, n-dodecane]
vapor pressure [1]: around 120 mTorr

Cc1cccc2ccccc12 [1-methylnaphthalene]
toxicity to marine organisms [2]: highly toxic | chromosome damage in vitro [3]: cause damage to chromosomes | effect of repeated human exposure [4]: causes sensitization

CCCCCCN(CCCCCC)CCCCCC [tri-n-hexylamine]
evaporation rate ([5]; 115° C., flow of nitrogen gas at one atmosphere): 0.346 mg min^−1 cm^−2

bis(N,N′-diisopropylacetamidinato)tin(II)
solubility (in words) ([6]; in tri-n-hexylamine): high

bis(N,N′-diisopropylpentamidinato)manganese(II)
solubility ([6]; oxygen-free tri-n-hexylamine): 8 weight percent

bis(N,N′-di-tert-butylacetamidinato)ruthenium(II)tricarbonyl
solubility (in words) [6, 7]: moderate

bis(N,N′-di-tert-butylacetamidinato)nickel(II)
solubility ([6]; oxygen-free tri-n-hexylamine): 22 weight percent

bis(N,N′-diisopropylacetamidinato)cobalt(II)
solubility (in words) ([6]; in tri-n-hexylamine): high

bis(N,N′-di-tert-butylacetamidinato)manganese(II)
solubility ([6]; oxygen-free tri-n-hexylamine): 42 weight percent

tris(N,N′-diisopropylacetamidinato)yttrium(III)
solubility (in words) [6, 7]: high

tris(N,N′-diisopropylformamidinato)lanthanum(III)
solubility (in words) [6, 7]: high

bis(N,N′-di-sec-butylacetamidinato)copper(I) dimer
evaporation rate ([5]; 160° C.=433 K, read from FIG. 2, neat precursor into 1 atmosphere nitrogen): about 0.8 mg cm^−2 min^−1 | solubility ([6]; oxygen-free tri-n-hexylamine and in tri-n-heptylamine): about 30 weight percent
